Measured values reported in patent US9011833B2, “Vitamin E formulations of sulfamide NS3 inhibitors” (priority 2010, dated 2015).
≈ marks a conversion by molar mass, not a printed value.

Tests used:
[1] = Solubilization of Compound 34 in microemulsion formulation; assay type: physicochemical; settings: microemulsion preconcentrate or microemulsion diluted with water
Description: Microemulsion preconcentrate or diluted microemulsion with water is used. The formulation solubilizes the Compound 34 up to 15% by wt. The specific components for formulation are: […]

physchem = settings: aqueous buffer, Compound 34 solubility
in vivo = assay: in vivo; design: species or system sprague dowley rats; settings: Sprague-Dawley, rat

CC[C@@H]1C[C@]1(NC(=O)[C@@H]1C[C@@]2(CN1C(=O)[C@@H](NC(=O)[C@@H](NC(=O)[C@@H]1CCCCN1C(C)C)C1CCCCC1)C(C)(C)C)C(C)(C)C21CCC1)C(=O)NS(=O)(=O)N1CCCC1 [Compound 34, (5R,8S)-7-[(2S)-2-{[(2S)-2-cyclohexyl-2-({[(2S)-1-isopropylpiperidin-2-yl]carbonyl}amino)acetyl]a-mino}-3,3-dimethylbutanoyl]-N-{(1R,2R)-2-ethyl-1-[(pyrrolidin-1-ylsulfonyl)carbamoyl]cyclo-propyl}-10,10-dimethyl-7-azadispiro[3.0.4.1]decane-8-carboxamide]
solubilized in microemulsion formulation [1]: up to 15 % by wt | solubility (physchem): 30 µg/mL (≈ 35 µM) | bioavailability (in vivo): 80 to 95%
